In US20260062422A1 (Halda Therapeutics OpCo, Inc., priority 2022, published 2026):

Biological target: T1, BRD4-BD1 (Homo sapiens, UniProt O60885)
T1 construct: made in house; host or cells: T7 phage grown in an E. coli host derived from BL21
Experiment: bromoKdELECT assay for binding affinity to BRD4-BD1
Details: Table 6
Description: Compounds were tested using a bromoKdELECT assay. T7 phage strains displaying bromodomains were grown in parallel in 24-well blocks in an E. coli host derived from the BL21 strain. E. coli were grown to log-phase and infected with T7 phage from a frozen stock (multiplicity of infection=0.4) and incubated with shaking at 32° C. until lysis (90-150 minutes). The lysates were centrifuged (5,000×g) and filtered (0.2 μm) to remove cell debris. Streptavidin-coated magnetic beads were treated with biotinylated small molecule or acetylated peptide ligands for 30 minutes at room temperature to generate affinity resins for bromodomain assays. The liganded beads were blocked with excess biotin and washed with blocking buffer (SeaBlock (Pierce), 1% BSA, 0.05% Tween 20, 1 mM DTT) to remove unbound ligand and to reduce nonspecific phage binding. Binding reactions were assembled by combining bromodomains, liganded affinity beads, and test compounds in 1× binding buffer (17% SeaBlock, 0.33×PBS, 0.04% Tween 20, 0.02% BSA, 0.004% Sodium azide, 7.4 mM DTT). Test compounds were prepared as 1000× stocks in 100% DMSO. Kds were determined using an 11-point 3-fold compound dilution series with one DMSO control point. All compounds for Kd measurements are distributed by acoustic transfer (non-contact dispensing) in 100% DMSO. The compounds were then diluted directly into the assays such that the final concentration of DMSO was 0.09%. All reactions performed in polypropylene 384-well plates. Each was a final volume of 0.02 ml. The assay plates were incubated at room temperature with shaking for 1 hour and the affinity beads were washed with wash buffer (1×PBS, 0.05% Tween 20). The beads were then resuspended in elution buffer (1×PBS, 0.05% Tween […] non-biotinylated affinity ligand) and incubated at room temperature with shaking for 30 minutes. The bromodomain concentration in the eluates was measured by qPCR.
Work on `CCNC(=O)C[C@@H]1N=C(c2ccc(CCCC3CCN(c4ncc(C(=O)N[C@H]5C(C)(C)[C@H](Oc6ccc(C#N)c(Cl)c6)C5(C)C)cn4)CC3)cc2)c2c(sc(C)c2C)-n2c(C)nnc21` [Compound I-95] yielded a Kd greater than 2500 nM. `Cc1sc2c(c1C)C(c1ccc(CCCOC3CCN(c4ncc(C(=O)N[C@H]5C(C)(C)[C@H](Oc6ccc(C#N)c(Cl)c6)C5(C)C)cn4)CC3)cc1)=N[C@@H](CC(=O)NC(C)C)c1nnc(C)n1-2` [Compound I-100] showed a Kd greater than 2500 nM. In the case of `Cc1sc2c(c1C)C(c1ccc(Cl)cc1)=N[C@@H](CC(=O)NCCCCOCCOC1CCN(c3ncc(C(=O)N[C@H]4C(C)(C)[C@H](Oc5ccc(C#N)c(Cl)c5)C4(C)C)cn3)CC1)c1nnc(C)n1-2` [Compound I-28], the Kd is reported as 500 to 2500 nM. For `Cc1sc2c(c1C)C(c1ccc(Cl)cc1)=N[C@@H](CC(=O)NCCCCCCCOC1CCN(c3ncc(C(=O)N[C@H]4C(C)(C)[C@H](Oc5ccc(C#N)c(Cl)c5)C4(C)C)cn3)CC1)c1nnc(C)n1-2` [Compound I-24], the Kd was greater than 2500 nM. Molecule `CCNC(=O)C[C@@H]1N=C(c2ccc(OCCOC3CCN(c4ncc(C(=O)N[C@H]5C(C)(C)[C@H](Oc6ccc(C#N)c(Cl)c6)C5(C)C)cn4)CC3)c(F)c2)c2c(sc(C)c2C)-n2c(C)nnc21` [Compound I-76] has a Kd of 500 to 2500 nM. Work on `CCNC(=O)C[C@@H]1N=C(c2ccc(N3CCC(N(C)C4CCN(c5ncc(C(=O)N[C@H]6C(C)(C)[C@H](Oc7ccc(C#N)c(Cl)c7)C6(C)C)cn5)CC4)CC3)cc2)c2c(sc(C)c2C)-n2c(C)nnc21` [Compound I-113] yielded a Kd of less than 50 nM. With `CCN(C)C(=O)C[C@@H]1N=C(c2ccc(OCCOC3CCN(c4ncc(C(=O)N[C@H]5C(C)(C)[C@H](Oc6ccc(C#N)c(Cl)c6)C5(C)C)cn4)CC3)cc2)c2c(sc(C)c2C)-n2c(C)nnc21` [Compound I-66] the Kd was 500 to 2500 nM. `CCNC(=O)C[C@@H]1N=C(c2ccc(OCCOC3CCN(c4ncc(C(=O)N[C@H]5C(C)(C)[C@H](Oc6ccc(C#N)c(Cl)c6)C5(C)C)cn4)CC3)c(F)c2F)c2c(sc(C)c2C)-n2c(C)nnc21` [Compound I-73] showed a Kd of 500 to 2500 nM. For `Cc1sc2c(c1C)C(c1ccc(Cl)cc1)=N[C@H](CC(=O)NCCOCCOCCOCCOC1CCN(c3ncc(C(=O)N[C@H]4C(C)(C)[C@H](Oc5ccc(C#N)c(Cl)c5)C4(C)C)cn3)CC1)c1nnc(C)n1-2` [Compound I-13], the Kd was greater than 2500 nM. With `CCNC(=O)C[C@@H]1N=C(c2ccc(N(C)C3CN(CC4CCN(c5ncc(C(=O)N[C@H]6C(C)(C)[C@H](Oc7ccc(C#N)c(Cl)c7)C6(C)C)cn5)CC4)C3)cc2)c2c(sc(C)c2C)-n2c(C)nnc21` [Compound I-119] the Kd was 50 to 500 nM. With `CCNC(=O)C[C@@H]1N=C(c2ccc(N3CCC(OC4CCN(c5ncc(C(=O)N[C@H]6C(C)(C)[C@H](Oc7ccc(C#N)c(Cl)c7)C6(C)C)cn5)CC4)CC3)cc2)c2c(sc(C)c2C)-n2c(C)nnc21` [Compound I-114] the Kd was 50 to 500 nM. `CCNC(=O)C[C@@H]1N=C(c2ccc(N(C)CCN3CCN(c4ncc(C(=O)N[C@H]5C(C)(C)[C@H](Oc6ccc(C#N)c(Cl)c6)C5(C)C)cn4)CC3)cc2)c2c(sc(C)c2C)-n2c(C)nnc21` [Compound I-108] gave a Kd of 50 to 500 nM. Molecule `Cc1sc2c(c1C)C(c1ccc(Cl)cc1)=N[C@@H](CC(=O)NCCCN1CCN(CC3CCN(c4ncc(C(=O)N[C@H]5C(C)(C)[C@H](Oc6ccc(C#N)c(Cl)c6)C5(C)C)cn4)CC3)CC1)c1nnc(C)n1-2` [Compound I-36, N-((1r,3r)-3-(3-chloro-4-cyanophenoxy)-2,2,4,4-tetramethylcyclobutyl)-2-(4-((4-(3-(2-((S)-4-(4-chlorophenyl)-2,3,9-trimethyl-6H-thieno[3,2-f][1,2,4]triazolo[4,3-a][1,4]diazepin-6-yl)acetamido)propyl)piperazin-1-yl)methyl)piperidin-1-yl)pyrimidine-5-carboxamide] has a Kd of 50 to 500 nM. For `CCNC(=O)C[C@@H]1N=C(c2ccc(N(C)CC3CN(c4ncc(C(=O)N[C@H]5C(C)(C)[C@H](Oc6ccc(C#N)c(Cl)c6)C5(C)C)cn4)C3)cc2)c2c(sc(C)c2C)-n2c(C)nnc21` [Compound I-107], the Kd was 50 to 500 nM. `Cc1sc2c(c1C)C(c1ccc(Cl)cc1)=N[C@@H](CC(=O)NCCOCCOCCOCC1CN(c3ncc(C(=O)N[C@H]4C(C)(C)[C@H](Oc5ccc(C#N)c(Cl)c5)C4(C)C)cn3)C1)c1nnc(C)n1-2` [Compound I-18] gave a Kd of 50 to 500 nM. Work on `Cc1sc2c(c1C)C(c1ccc(Cl)cc1)=N[C@H](CC(=O)NCCOCCOCCOCCOCCN(C)c1ncc(C(=O)N[C@H]3C(C)(C)[C@H](Oc4ccc(C#N)c(Cl)c4)C3(C)C)cn1)c1nnc(C)n1-2` [Compound I-19] yielded a Kd greater than 2500 nM. `CCNC(=O)C[C@@H]1N=C(c2ccc(OCCOC3CCN(c4ncc(C(=O)N[C@H]5C(C)(C)[C@H](Oc6ccc(C#N)c(Cl)c6)C5(C)C)cn4)CC3)cc2F)c2c(sc(C)c2C)-n2c(C)nnc21` [Compound I-75] showed a Kd of 500 to 2500 nM. `Cc1sc2c(c1C)C(c1ccc(CCCOC3CCN(c4ncc(C(=O)N[C@H]5C(C)(C)[C@H](Oc6ccc(C#N)c(Cl)c6)C5(C)C)cn4)CC3)cc1)=N[C@@H](CC(=O)NC1CC1)c1nnc(C)n1-2` [Compound I-102] gave a Kd of 500 to 2500 nM. `Cc1sc2c(c1C)C(c1ccc(Cl)cc1)=N[C@@H](CC(=O)NCCOCCOCCOCCOC1CCN(c3ncc(C(=O)N[C@H]4C(C)(C)[C@H](Oc5ccc(C#N)c(Cl)c5)C4(C)C)cn3)CC1)c1nnc(C)n1-2` [Compound I-11] showed a Kd of 500 to 2500 nM.

Test system: not listed separately
Experiment: Cellular growth inhibition, T-Rex 293 SC cells with doxycycline (progesterone receptor isoform B induced), Example 45
Type: cell-based
Details: progesterone receptor isoform B induced with 10 ng/mL doxycycline, 72 hours, CellTiter-Glo 2.0, Table 11
Description: (§1) The following types of cells were prepared for this experiment: (i) a T-Rex 293 cell line having increased expression of progesterone receptor isoform B protein due to exposure to doxycycline and (ii) a T-Rex 293 cell line lacking increased expression of progesterone receptor isoform B protein. Ability of the test compounds to inhibit proliferation of the foregoing cell types was evaluated according to the procedures set forth below.
(§2) The doxycycline-inducible progesterone receptor isoform B protein expressing cell line was established using the following protocol: T-Rex 293 cells were purchased from Invitrogen (Cat #R71007) and transfected using Lipofectamine 2000 with the wild-type progesterone receptor B protein sequence cloned into the pcDNA4/TO vector. Transfected cells were selected using 400 μg/mL Zeocin (Invitrogen Cat #R25001). Following selection, single clones were raised and maintained in Dulbecco's Modified Eagle Medium (DMEM) supplemented with 10% w/w Tetracycline-free fetal bovine serum (FBS) and 250 μg/mL Zeocin. Clones were analyzed for expression of progesterone receptor isoform B protein in the presence and absence of 10 ng/mL doxycycline (Sigma Cat #D9891), and a single doxycycline-inducible clone (hereinafter “SC”) was selected for use in downstream assays.
(§3) The SC cells were seeded on poly-D-lysine coated, black clear-bottom 384-well plates at 2500/well, in 25 μL Phenol Red Free Dulbecco's Modified Eagle Medium (DMEM) supplemented with 10% w/w charcoal-dextran treated fetal bovine serum (FBS) and 1% w/w pen-strep, with or without 10 ng/mL doxycycline. Pen-Strep is a commercially available mixture of penicillin G and streptomycin, which is used in mammalian cell culture media to prevent bacterial contamination. Phenol Red Free Dulbecco's Modified Eagle Medium (DMEM) supplemented with 10% w/w charcoal-dextran treated fetal bovine serum (FBS) and 1% w/w pen-strep, with or without 10 ng/mL doxycycline is herein referred to as Treatment Medium. Following seeding of cells in the plates, the plates were spun at 300×g for 30 seconds, then equilibrated to room temperature for 30 minutes, and then deposited in a humidified tissue culture incubator maintained at 37° C. with 5% CO2.
(§4) At 24 hours after seeding of the cells, dilutions of test compound were prepared in DMSO and dissolved in Treatment Medium, to achieve a final DMSO concentration of 0.5% w/w, thereby providing the Test Compound Solution. A 25 μL aliquot of the Test Compound Solution was added to cells in the well plates. An equal volume of a solution containing DMSO and Treatment Medium was used as a negative control. Following treatment of cells with Test Compound Solution or said equal volume of a solution containing DMSO and Treatment Medium, the plates were spun at 300×g for 30 seconds, and then left in an incubator for 72 hours.
(§5) At the end of the treatment duration, cell viability was quantified with CellTiter-Glo 2.0 reagent (Promega Cat #G9243). For this purpose, plates were equilibrated to room temperature for 30 minutes, and then 25 μL of CellTiter-Glo 2.0 reagent was added to cells in the plate wells. Plates were then agitated on a shaker for two minutes at 500 rpm and subsequently incubated at room temperature for 10 minutes. Following incubation, the plates were spun at 3000×g for 30 seconds, then sealed with an optical adhesive cover, and luminescence readings were measured with an EnVision Plate Reader (Perkin Elmer).
(§6) Data was normalized using zero luminescence for baseline. A four-parameter non-linear regression curve fit was applied to dose-response data in GraphPad Prism data analysis software to determine the half-maximal growth inhibitory concentration (GI50) for each test compound.
Work on `Cc1sc2c(c1C)C(c1ccc(C3CC3C3CC4(CCN(c5ncc(C(=O)N[C@H]6C(C)(C)[C@H](Oc7ccc(C#N)c(Cl)c7)C6(C)C)cn5)CC4)C3)cc1)=N[C@@H](Cc1ncco1)c1nnc(C)n1-2` (stereo partly shown) [Compound I-237] yielded a GI50 of less than 500 nM. Molecule `Cc1sc2c(c1C)C(c1ccc(OC3CN(CC4CCN(c5ncc(C(=O)N[C@H]6C(C)(C)[C@H](Oc7ccc(C#N)c(Cl)c7)C6(C)C)cn5)CC4)C3)cc1)=N[C@H](Cc1ncco1)c1nnc(C)n1-2` [Compound I-169] has a GI50 of less than 500 nM. `Cc1sc2c(c1C)C(c1ccc(Cl)cc1)=N[C@@H](CC(=O)NCCOCCOCCOCCOCCOCCOCCN(C)c1ncc(C(=O)N[C@H]3C(C)(C)[C@H](Oc4ccc(C#N)c(Cl)c4)C3(C)C)cn1)c1nnc(C)n1-2` [Compound I-4] gave a GI50 of less than 500 nM.

Test system: T-Rex 293 cell line SC cells lacking increased expression of progesterone receptor isoform B protein
Experiment: Cellular growth inhibition, T-Rex 293 SC cells without doxycycline, Example 45
Type: cell-based
Details: T-Rex 293 SC cells not exposed to doxycycline, 72 hours treatment, CellTiter-Glo 2.0
Description: as §1, §2, §3, §4, §5, §6
`Cc1sc2c(c1C)C(c1ccc(C3CC3C3CC4(CCN(c5ncc(C(=O)N[C@H]6C(C)(C)[C@H](Oc7ccc(C#N)c(Cl)c7)C6(C)C)cn5)CC4)C3)cc1)=N[C@@H](Cc1ncco1)c1nnc(C)n1-2` (stereo partly shown) [Compound I-237] gave a GI50 greater than 3000 nM. In the case of `Cc1sc2c(c1C)C(c1ccc(OC3CN(CC4CCN(c5ncc(C(=O)N[C@H]6C(C)(C)[C@H](Oc7ccc(C#N)c(Cl)c7)C6(C)C)cn5)CC4)C3)cc1)=N[C@H](Cc1ncco1)c1nnc(C)n1-2` [Compound I-169], the GI50 is reported as less than 500 nM. For `Cc1sc2c(c1C)C(c1ccc(Cl)cc1)=N[C@@H](CC(=O)NCCOCCOCCOCCOCCOCCOCCN(C)c1ncc(C(=O)N[C@H]3C(C)(C)[C@H](Oc4ccc(C#N)c(Cl)c4)C3(C)C)cn1)c1nnc(C)n1-2` [Compound I-4], the GI50 was 1500 to 3000 nM.
